From the supplement of paper PMC10307832

Key:
Test in all cases: relative viability (nuclei count vs DMSO), 5 days (fraction); higher = more cells survive
[1] = compound: COc1cc2nc(N3CCCN(C)CC3)nc(NC3CCN(Cc4ccccc4)CC3)c2cc1OC + Nc1ncn([C@H]2C[C@H](O)[C@@H](CO)O2)c(=O)n1 [Decitabine] (partner 2 µM)
Method in brief: (§1)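 Lung cancer cell lines in 1536-well plates got either a single drug or a fixed anchor-drug dose together with five library-drug doses (not always all listed) in √10 steps, by pin tool, on the day after seeding. Nuclei were counted after 5 days, and relative viability is the treated-to-vehicle ratio of nuclei counts. Values are medians of duplicate plates.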

[2] = compound: COc1cc2nc(N3CCCN(C)CC3)nc(NC3CCN(Cc4ccccc4)CC3)c2cc1OC + CC(C)C[C@H](NC(=O)[C@H](Cc1ccccc1)NC(=O)c1cnccn1)B(O)O [Bortezomib] (partner 0.002 µM)
Method in brief: as §1

AZD6482 + Luminespib = compound: Cc1cc([C@@H](C)Nc2ccccc2C(=O)O)c2nc(N3CCOCC3)cc(=O)n2c1 [AZD6482] + CCNC(=O)c1noc(-c2cc(C(C)C)c(O)cc2O)c1-c1ccc(CN2CCOCC2)cc1 [Luminespib] (partner 0.01 µM)
Method in brief: as §1

AZD6482 + Dasatinib = compound: Cc1cc([C@@H](C)Nc2ccccc2C(=O)O)c2nc(N3CCOCC3)cc(=O)n2c1 [AZD6482] + Cc1nc(Nc2ncc(C(=O)Nc3c(C)cccc3Cl)s2)cc(N2CCN(CCO)CC2)n1 [Dasatinib] (partner 0.075 µM)
Method in brief: as §1

Cell Line | relative viability ([1]; first compound 0.2 µM) | relative viability ([1]; first compound 0.6325 µM) | relative viability ([1]; first compound 2 µM) | relative viability ([1]; first compound 6.325 µM) | relative viability ([2]; first compound 0.2 µM) | relative viability ([2]; first compound 0.6325 µM) | relative viability ([2]; first compound 2 µM) | relative viability ([2]; first compound 6.325 µM) | relative viability (AZD6482 + Luminespib; first compound 0.08 µM) | relative viability (AZD6482 + Luminespib; first compound 0.253 µM) | relative viability (AZD6482 + Luminespib; first compound 0.8 µM) | relative viability (AZD6482 + Luminespib; first compound 2.53 µM) | relative viability (AZD6482 + Luminespib; first compound 8 µM) | relative viability (AZD6482 + Dasatinib; first compound 0.08 µM) | relative viability (AZD6482 + Dasatinib; first compound 0.253 µM) | relative viability (AZD6482 + Dasatinib; first compound 0.8 µM) | relative viability (AZD6482 + Dasatinib; first compound 2.53 µM) | relative viability (AZD6482 + Dasatinib; first compound 8 µM)
201T | 0.889 | 0.812 | 0.859 | 0.799 | 1.13 | 1.14 | 1.17 | 1.07 | 0.995 | 0.982 | 1.01 | 0.847 | 1.02 | 0.645 | 0.542 | 0.627 | 0.416 | 0.395
A549 | 0.227 | 0.238 | 0.263 |  |  |  |  |  |  |  |  |  |  |  |  |  |  | 
A-427 | 0.602 | 0.551 | 0.589 | 0.531 | 0.962 | 0.869 | 1.09 | 0.957 | 0.974 | 0.79 | 0.986 |  | 0.677 | 0.717 | 0.615 | 0.715 |  | 0.754
ABC-1 | 0.969 | 1.09 | 0.929 | 1.19 | 0.26 | 0.339 | 0.264 | 0.328 | 0.668 | 0.521 | 0.438 | 0.55 | 0.461 | 0.5 | 0.591 | 0.699 | 0.496 | 0.53
BEN | 0.765 | 0.743 | 0.914 | 0.699 | 0.781 | 0.952 | 1.09 | 0.883 | 0.399 | 0.193 | 0.522 | 0.177 | 0.334 | 0.358 | 0.269 | 0.39 | 0.216 | 0.339
CAL-12T |  |  |  |  | 0.996 | 1.32 | 1.05 | 0.833 | 0.476 | 0.204 | 0.338 | 0.171 | 0.325 | 0.403 | 0.393 | 0.332 | 0.21 | 0.171
COR-L23 | 0.466 | 0.477 | 0.527 | 0.471 | 0.956 | 0.884 | 1.11 | 0.933 | 0.635 | 0.688 | 0.768 | 0.519 | 0.636 | 0.338 | 0.374 | 0.47 | 0.292 | 0.326
COR-L 105 | 0.687 | 0.685 | 0.648 | 0.492 | 0.787 | 0.835 | 0.591 | 0.404 | 0.75 | 0.867 | 1.04 | 0.46 | 0.663 | 0.287 | 0.318 | 0.325 | 0.262 | 0.273
Calu-6 |  |  |  |  | 0.976 | 0.942 | 1.03 | 0.948 |  |  |  |  |  |  |  |  |  | 
ChaGo-K-1 | 0.553 | 0.506 | 0.49 | 0.504 | 0.995 | 1.13 | 1.16 | 0.838 | 0.486 | 0.526 | 0.574 | 0.593 | 0.501 | 0.647 | 0.501 | 0.79 | 0.589 | 0.532
EBC-1 |  |  |  |  | 0.469 | 0.476 | 0.437 | 0.265 |  |  |  |  |  |  |  |  |  | 
EKVX | 0.329 | 0.318 | 0.343 | 0.27 | 1.09 | 0.993 | 1.18 | 0.963 | 0.778 | 0.748 | 0.74 | 0.625 | 0.557 | 0.465 | 0.507 | 0.504 | 0.304 | 0.3
EMC-BAC-2 | 0.997 | 0.968 | 0.882 | 0.915 | 1.09 | 1.12 | 1.11 | 1.09 | 1.01 | 1.05 | 1.18 | 0.805 | 0.787 | 0.253 | 0.327 | 0.275 | 0.257 | 0.271
EPLC-272H | 0.392 | 0.387 | 0.341 | 0.38 | 0.897 | 0.793 | 0.918 | 0.658 | 0.347 | 0.164 | 0.21 | 0.179 | 0.256 | 0.253 | 0.291 | 0.311 | 0.172 | 0.124
H3255 | 0.576 | 0.626 | 0.601 | 0.588 | 0.782 | 0.944 | 0.726 | 0.43 | 0.986 | 0.761 | 0.806 | 0.529 | 0.799 | 0.339 | 0.342 | 0.476 | 0.345 | 0.322
HARA | 0.548 | 0.556 | 0.697 | 0.442 | 1.03 | 1.07 | 1.28 | 1.11 | 0.58 | 0.636 | 0.57 | 0.627 | 0.419 | 0.268 | 0.302 | 0.232 | 0.188 | 0.157
HCC-15 | 0.688 | 0.875 | 0.649 | 0.495 | 1.03 | 1.02 | 1.12 | 0.881 | 0.425 | 0.229 | 0.275 | 0.239 | 0.43 | 0.566 | 0.545 | 0.594 | 0.385 | 0.598
